# In patent publication US6737383B1, “Herbicidal oxadiazolidines” (priority 1999, dated 2004):
# Tests used:
# bedstraw = assay: Test B pre/postemergence bedstraw; type: in vivo, Galium aparine
# How it was run: (§1)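 Test chemicals in a non-phytotoxic solvent mixture with surfactant were sprayed preemergence onto planted seeds and postemergence onto plants 2 to 18 cm tall (1- to 4-leaf stage). After twelve to sixteen days in a greenhouse, injury was visually rated against untreated controls from 0 (no effect) to 10 (complete control).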
# blackgrass = assay: Test B pre/postemergence blackgrass; type: in vivo, Alopecurus myosuroides
# How it was run: as §1
# surinam grass = assay: Test B pre/postemergence surinam grass; type: in vivo, Brachiaria decumbens
# How it was run: as §1
# cocklebur = assay: Test B pre/postemergence cocklebur; type: in vivo, Xanthium strumarium
# How it was run: as §1
# corn = assay: Test B pre/postemergence corn; type: in vivo, Zea mays
# How it was run: as §1
# crabgrass = assay: Test B pre/postemergence crabgrass; type: in vivo, Digitaria sanguinalis
# How it was run: as §1
# giant foxtail = assay: Test B pre/postemergence giant foxtail; type: in vivo, Setaria faberii
# How it was run: as §1
# morningglory = assay: Test B pre/postemergence morningglory; type: in vivo, Ipomoea hederacea
# How it was run: as §1
# pigweed = assay: Test B pre/postemergence pigweed; type: in vivo, Amaranthus retroflexus
# How it was run: as §1
# rape = assay: Test B pre/postemergence rape; type: in vivo, Brassica napus
# How it was run: as §1
# soybean = assay: Test B pre/postemergence soybean; type: in vivo, Glycine max
# How it was run: as §1
# sugar beet = assay: Test B pre/postemergence sugar beet; type: in vivo, Beta vulgaris
# How it was run: as §1
# velvetleaf = assay: Test B pre/postemergence velvetleaf; type: in vivo, Abutilon theophrasti
# How it was run: as §1
# wheat = assay: Test B pre/postemergence wheat; type: in vivo, Triticum aestivum
# How it was run: as §1
# wild oat = assay: Test B pre/postemergence wild oat; type: in vivo, Avena fatua
# How it was run: as §1
# purple nutsedge = assay: Test B pre/postemergence purple nutsedge; type: in vivo, Cyperus rotundus
# How it was run: as §1
# rice = assay: Test B flood test rice; type: in vivo, Oryza sativa
# How it was run: (§2)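 Plants were grown to the 2-leaf stage before treatment with test chemical, then held in a greenhouse for twelve to sixteen days. Injury was visually rated against untreated controls on a 0–10 scale, where 0 is no effect and 10 is complete control.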
# smallflower flatsedge = assay: Test B flood test smallflower flatsedge; type: in vivo, Cyperus difformis
# How it was run: as §2
# duck salad = assay: Test B flood test duck salad; type: in vivo, Heteranthera limosa
# How it was run: as §2
# bamyardgrass = assay: Test B flood test barnyardgrass; type: in vivo, Echinochloa crus-galli
# How it was run: as §2
# [1] = Postemergence, Rate 62 g/ha, scale 0 to 10, 0 is no effect, 10 is complete control
# [2] = Postemergence, Rate 250 g/ha, scale of 0 to 10, 0 is no effect, 10 is complete control
# [3] = Postemergence, Rate 500 g/ha, scale of 0 to 10 where 0 is no effect and 10 is complete control
# [4] = Preemergence, Rate 500 g/ha, scale of 0 to 10 where 0 is no effect and 10 is complete control
# [5] = Postemergence, Rate 125 g/ha, scale of 0 to 10 where 0 is no effect and 10 is complete control
# [6] = Preemergence, Rate 62 g/ha, scale 0 to 10 (0 no effect, 10 complete control)
# [7] = Preemergence, Rate 125 g/ha, scale of 0 to 10 where 0 is no effect and 10 is complete control
# [8] = Rate 62 g/ha, flood test species, Pre-emergence, visual evaluation after twelve to sixteen days
# [9] = Rate 125 g/ha, under heading Pre-emergence, flood test species, visual evaluation after twelve to sixteen days
# [10] = Rate 250 g/ha, Pre-emergence (flood test species), scale 0 to 10, 0 is no effect, 10 is complete control
# [11] = Rate 500 g/ha, Pre-emergence section of Table B, 0 to 10 scale (0 no effect, 10 complete control)
structure (smiles),measurement,setting,value
CCC(C)n1c(=O)on(C(=O)N(c2ccccc2)C(C)C)c1=O (stereo not drawn) [Compound 610],"Plant response rating, Bedstraw",bedstraw; [1],0
same,Bedstraw plant response rating,bedstraw; [2],4
same,"Plant response rating, Bedstraw",bedstraw; [3],9
same,Bedstraw plant response rating,bedstraw; [4],10
same,"Plant response rating, Blackgrass",blackgrass; [1],8
same,"Plant response rating, Blackgrass",blackgrass; [5],9
same,Blackgrass plant response rating,blackgrass; [2],9
same,"Plant response rating, Blackgrass",blackgrass; [3],10
same,Blackgrass plant response rating,blackgrass; [6],8
same,Blackgrass plant response rating,blackgrass; [7],9
same,Blackgrass plant response rating (0 to 10 scale),"blackgrass; Preemergence, Rate 250 g/ha",10
same,Blackgrass plant response rating,blackgrass; [4],10
same,"Plant response rating, B. signalgrass",surinam grass; [1],0
same,"Plant response rating, B. signalgrass",surinam grass; [5],6
same,B. signalgrass plant response rating,surinam grass; [2],7
same,"Plant response rating, B. signalgrass",surinam grass; [3],9
same,B. signalgrass plant response rating,surinam grass; [6],6
same,B. signalgrass plant response rating,surinam grass; [7],8
same,"B. signalgrass plant response rating (0 to 10 scale, 0 is no effect, 10 is complete control)","surinam grass; Preemergence, Rate 250 g/ha",9
same,B. signalgrass plant response rating,surinam grass; [4],10
same,"Plant response rating, Cocklebur",cocklebur; [1],0
same,"Plant response rating, Cocklebur",cocklebur; [5],1
same,Cocklebur plant response rating,cocklebur; [2],0
same,"Plant response rating, Cocklebur",cocklebur; [3],2
same,Cocklebur plant response rating,cocklebur; [6],0
same,Cocklebur plant response rating,cocklebur; [7],0
same,Cocklebur plant response rating (0 to 10 scale),"cocklebur; Preemergence, Rate 250 g/ha",0
same,"Plant response rating, Cocklebur",cocklebur; [4],3
same,"Plant response rating, Corn",corn; [1],0
same,"Plant response rating, Corn",corn; [5],0
same,Corn plant response rating,corn; [2],2
same,"Plant response rating, Corn",corn; [3],5
same,Corn plant response rating,corn; [6],0
same,Corn plant response rating,corn; [7],3
same,Corn plant response rating (0 to 10 scale),"corn; Preemergence, Rate 250 g/ha",7
same,"Plant response rating, Corn",corn; [4],8
same,"Plant response rating, Crabgrass",crabgrass; [1],9
same,"Plant response rating, Crabgrass",crabgrass; [5],9
same,Crabgrass plant response rating,crabgrass; [2],9
same,"Plant response rating, Crabgrass",crabgrass; [3],9
same,Crabgrass plant response rating,crabgrass; [6],9
same,Crabgrass plant response rating,crabgrass; [7],10
same,"Plant response rating, Crabgrass",crabgrass; [4],10
same,"Plant response rating, Giant foxtail",giant foxtail; [1],8
same,"Plant response rating, Giant foxtail",giant foxtail; [5],7
same,Giant foxtail plant response rating,giant foxtail; [2],9
same,"Plant response rating, Giant foxtail",giant foxtail; [3],9
same,Giant foxtail plant response rating,giant foxtail; [6],9
same,Giant foxtail plant response rating,giant foxtail; [7],10
same,"Plant response rating, Giant foxtail",giant foxtail; [4],10
same,"Plant response rating, Morningglory",morningglory; [1],8
same,"Plant response rating, Morningglory",morningglory; [5],8
same,Morningglory plant response rating,morningglory; [2],8
same,"Plant response rating, Morningglory",morningglory; [3],9
same,Morningglory plant response rating,morningglory; [6],0
same,Morningglory plant response rating,morningglory; [7],3
same,"Plant response rating, Morningglory",morningglory; [4],8
same,"Plant response rating, Redroot pigweed",pigweed; [1],0
same,"Plant response rating, Redroot pigweed",pigweed; [5],2
same,Redroot pigweed plant response rating,pigweed; [2],6
same,"Plant response rating, Redroot pigweed",pigweed; [3],7
same,Redroot pigweed plant response rating,pigweed; [6],10
same,Redroot pigweed plant response rating,pigweed; [7],10
same,"Plant response rating, Redroot pigweed",pigweed; [4],10
same,"Plant response rating, Rape",rape; [1],0
same,"Plant response rating, Rape",rape; [5],2
same,Rape plant response rating,rape; [2],3
same,"Plant response rating, Rape",rape; [3],5
same,Rape plant response rating,rape; [6],3
same,Rape plant response rating,rape; [7],8
same,"Plant response rating, Rape",rape; [4],10
same,"Plant response rating, Soybean",soybean; [1],5
same,"Plant response rating, Soybean",soybean; [5],7
same,Soybean plant response rating,soybean; [2],8
same,"Plant response rating, Soybean",soybean; [3],9
same,Soybean plant response rating,soybean; [6],0
same,Soybean plant response rating,soybean; [7],6
same,"Plant response rating, Soybean",soybean; [4],8
same,"Plant response rating, Sugarbeets",sugar beet; [1],0
same,"Plant response rating, Sugarbeets",sugar beet; [5],0
same,Sugarbeets plant response rating,sugar beet; [2],0
same,"Plant response rating, Sugarbeets",sugar beet; [3],0
same,Sugarbeets plant response rating,sugar beet; [6],3
same,Sugarbeets plant response rating,sugar beet; [7],7
same,"Plant response rating, Sugarbeets",sugar beet; [4],8
same,"Plant response rating, Velvetleaf",velvetleaf; [1],0
same,"Plant response rating, Velvetleaf",velvetleaf; [5],3
same,Velvetleaf plant response rating,velvetleaf; [2],7
same,"Plant response rating, Velvetleaf",velvetleaf; [3],7
same,Velvetleaf plant response rating,velvetleaf; [6],7
same,Velvetleaf plant response rating,velvetleaf; [7],7
same,"Plant response rating, Velvetleaf",velvetleaf; [4],10
same,"Plant response rating, Wheat",wheat; [1],0
same,"Plant response rating, Wheat",wheat; [5],1
same,Wheat plant response rating,wheat; [2],4
same,"Plant response rating, Wheat",wheat; [3],5
same,Wheat plant response rating,wheat; [6],2
same,Wheat plant response rating,wheat; [7],2
same,"Plant response rating, Wheat",wheat; [4],6
same,"Plant response rating, Wild oats",wild oat; [1],0
same,"Plant response rating, Wild oats",wild oat; [5],3
same,Wild oats plant response rating,wild oat; [2],5
same,"Plant response rating, Wild oats",wild oat; [3],9
same,Wild oats plant response rating,wild oat; [6],5
same,Wild oats plant response rating,wild oat; [7],6
same,"Plant response rating, Wild oats",wild oat; [4],10
same,"Plant response rating, Nutsedge",purple nutsedge; [1],0
same,"Plant response rating, Nutsedge",purple nutsedge; [5],0
same,Nutsedge plant response rating,purple nutsedge; [2],5
same,"Plant response rating, Nutsedge",purple nutsedge; [3],6
same,Nutsedge plant response rating,purple nutsedge; [6],0
same,Nutsedge plant response rating,purple nutsedge; [7],0
same,"Plant response rating, Nutsedge",purple nutsedge; [4],3
same,"Plant response rating, Rice (0 to 10 scale, 0 is no effect, 10 is complete control)",rice; [8],0
same,"Rice plant response rating (0 to 10 scale, 0 is no effect, 10 is complete control)",rice; [9],0
same,Rice plant response rating,rice; [10],2
same,Rice plant response rating,rice; [11],8
same,"Plant response rating, S. Flatsedge (0 to 10 scale, 0 is no effect, 10 is complete control)",smallflower flatsedge; [8],0
same,"S. Flatsedge plant response rating (0 to 10 scale, 0 is no effect, 10 is complete control)",smallflower flatsedge; [9],0
same,S. Flatsedge plant response rating,smallflower flatsedge; [10],0
same,S. Flatsedge plant response rating,smallflower flatsedge; [11],8
same,"Plant response rating, Ducksalad (0 to 10 scale, 0 is no effect, 10 is complete control)",duck salad; [8],0
same,"Ducksalad plant response rating (0 to 10 scale, 0 is no effect, 10 is complete control)",duck salad; [9],0
same,Ducksalad plant response rating,duck salad; [10],0
same,Ducksalad plant response rating,duck salad; [11],7
same,"Plant response rating, Barnyardgrass (0 to 10 scale, 0 is no effect, 10 is complete control)",bamyardgrass; [8],0
same,"Barnyardgrass plant response rating (0 to 10 scale, 0 is no effect, 10 is complete control)",bamyardgrass; [9],0
same,Barnyardgrass plant response rating,bamyardgrass; [10],0
same,Barnyardgrass plant response rating,bamyardgrass; [11],8
